# Measurements from PMC11277489, “Novel Piperazine Derivatives of Vindoline as Anticancer Agents” (International Journal of Molecular Sciences, 2024).
# Tests used:
# SK-MEL-2 = assay: NCI60 one-dose screen (10 μM), Melanoma; format: cell-based; conditions: Homo sapiens; 10 μM; SK-MEL-2, Melanoma; read-out: Growth percent rate
# NCI-H460 = assay: NCI60 one-dose screen (10 μM), Non-small Cell Lung Cancer; format: cell-based; conditions: Homo sapiens; 10 μM; NCI-H460, Non-small Cell Lung Cancer; read-out: Growth percent rate
# KM12 = assay: NCI60 one-dose screen (10 μM), Colon Cancer; format: cell-based, human; conditions: Homo sapiens; 10 μM; KM12, Colon Cancer; read-out: Growth percent rate
# RPMI-8226 = assay: NCI60 one-dose screen (10 μM), Leukemia; format: cell-based; conditions: Homo sapiens; 10 μM; RPMI-8226, Leukemia; read-out: Growth percent rate
# U251 = assay: NCI60 one-dose screen (10 μM), CNS Cancer; format: cell-based; conditions: Homo sapiens, U-251; 10 μM; U251, CNS Cancer; read-out: Growth percent rate
# K-562 = assay: NCI60 one-dose screen (10 μM), Leukemia; format: cell-based; conditions: Homo sapiens, K562; 10 μM; K-562, Leukemia; read-out: Growth percent rate
# EKVX = assay: NCI60 one-dose screen (10 μM), Non-small Cell Lung Cancer; format: cell-based; conditions: Homo sapiens, 10 μM, Non-small Cell Lung Cancer, read-out: Growth percent rate
# NCI-H23 = assay: as above; format: cell-based; conditions: Homo sapiens; 10 μM; NCI-H23, Non-small Cell Lung Cancer; read-out: Growth percent rate
# NCI-H322M = assay: as above; format: cell-based; conditions: Homo sapiens, 10 μM, Non-small Cell Lung Cancer, read-out: Growth percent rate
# HL-60(TB) = assay: NCI60 one-dose screen (10 μM), Leukemia; format: cell-based; conditions: Homo sapiens; 10 μM; HL-60(TB), Leukemia; read-out: Growth percent rate
# 786–0 = assay: NCI60 one-dose screen (10 μM), Renal Cancer; format: cell-based; conditions: Homo sapiens; 10 μM; 786-0, Renal Cancer; read-out: Growth percent rate
# MDA-MB-435 = assay: NCI60 one-dose screen (10 μM), Melanoma; format: cell-based; conditions: Homo sapiens; 10 μM; MDA-MB-435, Melanoma; read-out: Growth percent rate
# LOX IMVI = assay: NCI60 one-dose screen (10 μM), Melanoma; format: cell-based, human; conditions: Homo sapiens; 10 μM; LOX IMVI, Melanoma; read-out: Growth percent rate
# A498 = assay: NCI60 one-dose screen (10 μM), Renal Cancer; format: cell-based; conditions: Homo sapiens; 10 μM; A498, Renal Cancer; read-out: Growth percent rate
# HOP-62 = assay: NCI60 one-dose screen (10 μM), Non-small Cell Lung Cancer; format: cell-based; conditions: Homo sapiens; 10 μM; HOP-62, Non-small Cell Lung Cancer; read-out: Growth percent rate
# SF-268 = assay: NCI60 one-dose screen (10 μM), CNS Cancer; format: cell-based; conditions: Homo sapiens; 10 μM; SF-268, CNS Cancer; read-out: Growth percent rate
# MCF7 = assay: NCI60 one-dose screen (10 μM), Breast Cancer; format: cell-based; conditions: Homo sapiens; 10 μM; MCF7, Breast Cancer; read-out: Growth percent rate
# COLO 205 = assay: NCI60 one-dose screen (10 μM), Colon Cancer; format: cell-based, human; conditions: Homo sapiens; 10 μM; COLO 205, Colon Cancer; read-out: Growth percent rate
# OVCAR-4 = assay: NCI60 one-dose screen (10 μM), Ovarian Cancer; format: cell-based; conditions: Homo sapiens; 10 μM; OVCAR-4, Ovarian Cancer; read-out: Growth percent rate
# SF-539 = assay: NCI60 one-dose screen (10 μM), CNS Cancer; format: cell-based, human; conditions: Homo sapiens; 10 μM; SF-539, CNS Cancer; read-out: Growth percent rate
# IGROV1 = assay: NCI60 one-dose screen (10 μM), Ovarian Cancer; format: cell-based; conditions: Homo sapiens, IGROV-1; 10 μM; IGROV1, Ovarian Cancer; read-out: Growth percent rate
# A549/ATCC = assay: NCI60 one-dose screen (10 μM), Non-small Cell Lung Cancer; format: cell-based; conditions: Homo sapiens; 10 μM; A549/ATCC, Non-small Cell Lung Cancer; read-out: Growth percent rate
# MALME-3M = assay: NCI60 one-dose screen (10 μM), Melanoma; format: cell-based; conditions: Homo sapiens; 10 μM; MALME-3M, Melanoma; read-out: Growth percent rate
# UACC-257 = assay: NCI60 one-dose screen (10 μM), Melanoma; format: cell-based; conditions: Homo sapiens; 10 μM; UACC-257, Melanoma; read-out: Growth percent rate
# RXF 393 = assay: NCI60 one-dose screen (10 μM), Renal Cancer; format: cell-based, human; conditions: Homo sapiens; 10 μM; RXF 393, Renal Cancer; read-out: Growth percent rate
# [1] = tested on: 60 human tumor cell lines (NCI60); assay: NCI60 one-dose screen (10 μM), whole panel; format: cell-based; conditions: 10 μM; mean over 60 human cancer cell lines; read-out: Growth percent rate, Mean
# ACHN = assay: NCI60 one-dose screen (10 μM), Renal Cancer; format: cell-based; conditions: Homo sapiens, 10 μM, Renal Cancer, read-out: Growth percent rate
# HS 578T = assay: NCI60 one-dose screen (10 μM), Breast Cancer; format: cell-based; conditions: Homo sapiens; 10 μM; HS 578T, Breast Cancer; read-out: Growth percent rate
# SK-MEL-28 = assay: NCI60 one-dose screen (10 μM), Melanoma; format: cell-based; conditions: Homo sapiens; 10 μM; SK-MEL-28, Melanoma; read-out: Growth percent rate
# MOLT-4 = assay: NCI60 one-dose screen (10 μM), Leukemia; format: cell-based, human; conditions: Homo sapiens; 10 μM; MOLT-4, Leukemia; read-out: Growth percent rate
# NCI-H522 = assay: NCI60 one-dose screen (10 μM), Non-small Cell Lung Cancer; format: cell-based; conditions: Homo sapiens; 10 μM; NCI-H522, Non-small Cell Lung Cancer; read-out: Growth percent rate
# SNB-75 = assay: NCI60 one-dose screen (10 μM), CNS Cancer; format: cell-based, human; conditions: Homo sapiens; 10 μM; SNB-75, CNS Cancer; read-out: Growth percent rate
# OVCAR-8 = assay: NCI60 one-dose screen (10 μM), Ovarian Cancer; format: cell-based; conditions: Homo sapiens; 10 μM; OVCAR-8, Ovarian Cancer; read-out: Growth percent rate
# HCT-116 = assay: NCI60 one-dose screen (10 μM), Colon Cancer; format: cell-based; conditions: Homo sapiens; 10 μM; HCT-116, Colon Cancer; read-out: Growth percent rate
# SN12C = assay: NCI60 one-dose screen (10 μM), Renal Cancer; format: cell-based; conditions: Homo sapiens, 10 μM, Renal Cancer, read-out: Growth percent rate
# CCRF-CEM = assay: NCI60 one-dose screen (10 μM), Leukemia; format: cell-based; conditions: Homo sapiens, 10 μM, Leukemia, read-out: Growth percent rate
# SF-295 = assay: NCI60 one-dose screen (10 μM), CNS Cancer; format: cell-based; conditions: Homo sapiens; 10 μM; SF-295, CNS Cancer; read-out: Growth percent rate
# HCT-15 = assay: NCI60 one-dose screen (10 μM), Colon Cancer; format: cell-based; conditions: Homo sapiens; 10 μM; HCT-15, Colon Cancer; read-out: Growth percent rate
# TK-10 = assay: NCI60 one-dose screen (10 μM), Renal Cancer; format: cell-based; conditions: Homo sapiens; 10 μM; TK-10, Renal Cancer; read-out: Growth percent rate
# OVCAR-3 = assay: NCI60 one-dose screen (10 μM), Ovarian Cancer; format: cell-based; conditions: Homo sapiens; 10 μM; OVCAR-3, Ovarian Cancer; read-out: Growth percent rate
# SW-620 = assay: NCI60 one-dose screen (10 μM), Colon Cancer; format: cell-based; conditions: Homo sapiens; 10 μM; SW-620, Colon Cancer; read-out: Growth percent rate
# CAKI-1 = assay: NCI60 one-dose screen (10 μM), Renal Cancer; format: cell-based; conditions: Homo sapiens; 10 μM; CAKI-1, Renal Cancer; read-out: Growth percent rate
compound,measurement,setting,value
CCC12C=CCN3CCC4(c5cc(NC(=O)CN6CCN(C(=O)c7ccco7)CC6)c(OC)cc5N(C)C4C(O)(C(=O)OC)C1OC(C)=O)C32 (stereo not drawn) [Compound 21],activity at 10 µM,SK-MEL-2,111%
same,activity at 10 µM,NCI-H460,108%
same,activity at 10 µM,KM12,99.8%
same,activity at 10 µM,RPMI-8226,103%
same,activity at 10 µM,U251,118%
same,activity at 10 µM,K-562,108%
same,activity at 10 µM,EKVX,99.2%
same,activity at 10 µM,NCI-H23,106%
same,activity at 10 µM,NCI-H322M,110%
same,activity at 10 µM,HL-60(TB),114%
same,activity at 10 µM,786–0,104%
same,activity at 10 µM,MDA-MB-435,104%
same,activity at 10 µM,LOX IMVI,98.5%
same,activity at 10 µM,A498,104%
same,activity at 10 µM,HOP-62,100%
same,activity at 10 µM,SF-268,106%
same,activity at 10 µM,MCF7,98.3%
same,activity at 10 µM,COLO 205,120%
same,activity at 10 µM,OVCAR-4,108%
same,activity at 10 µM,SF-539,114%
same,activity at 10 µM,IGROV1,127%
same,activity at 10 µM,A549/ATCC,101%
same,activity at 10 µM,MALME-3M,104%
same,activity at 10 µM,UACC-257,106%
same,activity at 10 µM,RXF 393,133%
same,activity at 10 µM,[1],108%
same,activity at 10 µM,ACHN,109%
same,activity at 10 µM,HS 578T,121%
same,activity at 10 µM,SK-MEL-28,126%
same,activity at 10 µM,MOLT-4,101%
same,activity at 10 µM,NCI-H522,98.2%
same,activity at 10 µM,SNB-75,91%
same,activity at 10 µM,OVCAR-8,101%
same,activity at 10 µM,HCT-116,108%
same,activity at 10 µM,SN12C,107%
same,activity at 10 µM,CCRF-CEM,103%
same,activity at 10 µM,SF-295,110%
same,activity at 10 µM,HCT-15,107%
same,activity at 10 µM,TK-10,109%
same,activity at 10 µM,OVCAR-3,118%
same,activity at 10 µM,SW-620,113%
same,activity at 10 µM,CAKI-1,97.5%
